# Key:
# Format in all cases: in vivo
# [1] = system: Amaranthus retroflexus; test: Pre-emergence herbicidal action against AMARE; details: visual score after 3 weeks vs untreated controls
# Summary of the method: (§1)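 Pre-emergence soil-surface spray of formulated compound (WP or EC; 600 to 800 l/ha; 0.2% wetting agent) over seeds sown in sandy loam. After 3 weeks under greenhouse conditions, damage is estimated visually in percent against untreated plants.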
# [2] = system: Alopecurus myosuroides; test: Pre-emergence herbicidal action against ALOMY; details: visual score after 3 weeks vs untreated controls
# Summary of the method: as §1
# [3] = system: Cyperus esculentus; test: Pre-emergence herbicidal action against CYPES; details: visual score after 3 weeks vs untreated controls
# Summary of the method: as §1
# [4] = system: Abutilon theophrasti; test: Post-emergence herbicidal action against ABUTH
# Summary of the method: (§2)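 Greenhouse plants in sandy loam were sprayed at the one-leaf stage, 2 to 3 weeks after sowing, with WP or EC formulations as aqueous suspension or emulsion (600 to 800 l/ha water, 0.2% wetting agent). Visual damage was scored about 3 weeks later versus untreated controls, 0% = like control, 100% = dead.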
# [5] = system: Cyperus esculentus; test: Post-emergence herbicidal action against CYPES; details: 80 g/ha, visual assessment about 3 weeks after treatment
# Protocol: (§3) Seeds of monocotyledonous and dicotyledonous weed and crop plants are laid out in sandy loam soil in wood-fiber pots, covered with soil and cultivated in a greenhouse under good growth conditions. 2 to 3 weeks after sowing, the test plants are treated at the one-leaf stage. The compounds of the invention, formulated in the form of wettable powders (WP) or as emulsion concentrates (EC), are then sprayed onto the green parts of the plants in the form of an aqueous suspension or emulsion at a water application rate equivalent to 600 to 800 l/ha, with addition of 0.2% wetting agent. After the test plants have been left to stand in the greenhouse under optimal growth conditions for about 3 weeks, the action of the preparations is assessed visually in comparison to untreated controls (herbicidal action in percent (%): 100% activity=the plants have died, 0% activity=like control plants). […] The tables below illustrate, in an illustrative manner, the post-emergence herbicidal action of the compounds of the invention, the herbicidal activity being stated in percent.
# [6] = system: Alopecurus myosuroides; test: Post-emergence herbicidal action against ALOMY
# Summary of the method: as §2
# [7] = system: Stellaria media; test: Pre-emergence herbicidal action against STEME
# Summary of the method: as §1
# [8] = system: Pharbitis purpurea; test: Post-emergence herbicidal action against PHBPU; details: visual assessment about 3 weeks after treatment
# Summary of the method: as §2
# [9] = system: Viola tricolor; test: Post-emergence herbicidal action against VIOTR; details: 80 g/ha
# Summary of the method: as §2
# [10] = system: Amaranthus retroflexus; test: Post-emergence herbicidal action against AMARE; details: visual assessment about 3 weeks after treatment
# Summary of the method: as §2
# [11] = system: Stellaria media; test: Post-emergence herbicidal action against STEME; details: visual assessment about 3 weeks after treatment
# Summary of the method: as §2
# [12] = system: Polygonum convolvulus; test: Post-emergence herbicidal action against POLCO; details: visual assessment about 3 weeks after treatment
# Summary of the method: as §2
# [13] = system: Avena fatua; test: Pre-emergence herbicidal action against AVEFA; details: visual score after 3 weeks vs untreated controls
# Summary of the method: as §1
# [14] = system: Abutilon theophrasti; test: Pre-emergence herbicidal action against ABUTH; details: visual score after 3 weeks vs untreated controls
# Summary of the method: as §1
# [15] = system: Matricaria inodora; test: Post-emergence herbicidal action against MATIN; details: 80 g/ha, visual assessment about 3 weeks after treatment
# Summary of the method: as §2
# [16] = system: Viola tricolor; test: Pre-emergence herbicidal action against VIOTR
# Summary of the method: as §1
# [17] = system: Echinochloa crus-galli; test: Pre-emergence herbicidal action against ECHCG; details: 320 g/ha; visual score after 3 weeks vs untreated controls
# Summary of the method: as §1
# [18] = system: Pharbitis purpurea; test: Pre-emergence herbicidal action against PHBPU; details: 320 g/ha; visual score after 3 weeks vs untreated controls
# Summary of the method: as §1
# [19] = system: Polygonum convolvulus; test: Pre-emergence herbicidal action against POLCO
# Summary of the method: as §1
# [20] = system: Echinochloa crus-galli; test: Post-emergence herbicidal action against ECHCG; details: visual assessment about 3 weeks after treatment
# Summary of the method: as §2
# [21] = system: Setaria viridis; test: Pre-emergence herbicidal action against SETVI
# Summary of the method: as §1
# [22] = system: Hordeum murinum; test: Pre-emergence herbicidal action against HORMU; details: visual score after 3 weeks vs untreated controls
# Summary of the method: as §1
# [23] = system: Lolium rigidum; test: Pre-emergence herbicidal action against LOLRI
# Summary of the method: as §1
# [24] = system: Veronica persica; test: Post-emergence herbicidal action against VERPE; details: visual assessment about 3 weeks after treatment
# Summary of the method: as §2
# [25] = system: Lolium rigidum; test: Post-emergence herbicidal action against LOLRI
# Protocol: as §3
# [26] = system: Matricaria inodora; test: Pre-emergence herbicidal action against MATIN; details: visual score after 3 weeks vs untreated controls
# Summary of the method: as §1
# [27] = system: Veronica persica; test: Pre-emergence herbicidal action against VERPE; details: 320 g/ha
# Summary of the method: as §1
# [28] = system: Avena fatua; test: Post-emergence herbicidal action against AVEFA; details: visual assessment about 3 weeks after treatment
# Summary of the method: as §2
# [29] = system: Setaria viridis; test: Post-emergence herbicidal action against SETVI; details: visual assessment about 3 weeks after treatment
# Summary of the method: as §2
smiles,measurement,setting,value
Cn1nnnc1NC(=O)c1ccc(C(F)(F)F)c(C(=O)N2CCCC2)c1Cl [Example 1-152],Pre-emergence action against AMARE,[1]; 20 g/ha,100%
same,Pre-emergence action against AMARE,[1]; 80 g/ha,100%
same,Pre-emergence action against AMARE,[1]; 320 g/ha,100%
same,Pre-emergence action against ALOMY,[2]; 20 g/ha,80%
same,Pre-emergence action against ALOMY,[2]; 80 g/ha,90%
same,Pre-emergence action against ALOMY,[2]; 320 g/ha,100%
same,Pre-emergence action against CYPES,[3]; 80 g/ha,90%
same,Pre-emergence action against CYPES,[3]; 320 g/ha,100%
same,Post-emergence action against ABUTH,[4]; 5 g/ha,100%
same,Post-emergence action against ABUTH,[4]; 20 g/ha,100%
same,Post-emergence action against ABUTH,[4]; 80 g/ha,100%
same,Post-emergence action against CYPES in %,[5],80%
same,Post-emergence action against ALOMY,[6]; 20 g/ha,80%
same,Post-emergence action against ALOMY,[6]; 80 g/ha,90%
same,Pre-emergence action against STEME,[7]; 20 g/ha,90%
same,Pre-emergence action against STEME,[7]; 80 g/ha,100%
same,Pre-emergence action against STEME,[7]; 320 g/ha,100%
same,Post-emergence action against PHBPU in %,[8]; 5 g/ha,80%
same,Post-emergence action against PHBPU in %,[8]; 20 g/ha,90%
same,Post-emergence action against PHBPU in %,[8]; 80 g/ha,90%
same,Post-emergence action against VIOTR in %,[9],90%
same,Post-emergence action against AMARE in %,[10]; 5 g/ha,100%
same,Post-emergence action against AMARE in %,[10]; 20 g/ha,100%
same,Post-emergence action against AMARE in %,[10]; 80 g/ha,100%
same,Post-emergence action against STEME in %,[11]; 5 g/ha,90%
same,Post-emergence action against STEME in %,[11]; 20 g/ha,90%
same,Post-emergence action against STEME in %,[11]; 80 g/ha,100%
same,Post-emergence action against POLCO in %,[12]; 5 g/ha,80%
same,Post-emergence action against POLCO in %,[12]; 80 g/ha,80%
same,Pre-emergence action against AVEFA,[13]; 80 g/ha,100%
same,Pre-emergence action against AVEFA,[13]; 320 g/ha,100%
same,Pre-emergence action against ABUTH,[14]; 20 g/ha,100%
same,Pre-emergence action against ABUTH,[14]; 80 g/ha,100%
same,Pre-emergence action against ABUTH,[14]; Dosage column 320 g/ha (heading prints 3200 g/ha),100%
same,Post-emergence action against MATIN in %,[15],90%
same,Pre-emergence action against VIOTR,[16]; 80 g/ha,100%
same,Pre-emergence action against VIOTR,[16]; 320 g/ha,100%
same,Pre-emergence action against ECHCG,[17],100%
same,Pre-emergence action against PHBPU,[18],80%
same,Pre-emergence action against POLCO,[19]; 80 g/ha,80%
same,Pre-emergence action against POLCO,[19]; 320 g/ha,100%
same,Post-emergence action against ECHCG in %,[20]; 5 g/ha,80%
same,Post-emergence action against ECHCG in %,[20]; 20 g/ha,90%
same,Post-emergence action against ECHCG in %,[20]; 80 g/ha,100%
same,Pre-emergence action against SETVI,[21]; 20 g/ha,100%
same,Pre-emergence action against SETVI,[21]; 80 g/ha,100%
same,Pre-emergence action against SETVI,[21]; 320 g/ha,100%
same,Pre-emergence action against HORMU,[22]; 80 g/ha,90%
same,Pre-emergence action against HORMU,[22]; 320 g/ha,100%
same,Pre-emergence action against LOLRI,[23]; 80 g/ha,80%
same,Pre-emergence action against LOLRI,[23]; 320 g/ha,100%
same,Post-emergence action against VERPE in %,[24]; 20 g/ha,90%
same,Post-emergence action against VERPE in %,[24]; 80 g/ha,90%
same,Post-emergence action against LOLRI in %,[25]; 20 g/ha,90%
same,Post-emergence action against LOLRI in %,[25]; 80 g/ha,100%
same,Pre-emergence action against MATIN,[26]; 20 g/ha,100%
same,Pre-emergence action against MATIN,[26]; 80 g/ha,100%
same,Pre-emergence action against MATIN,[26]; 320 g/ha,100%
same,Pre-emergence action against VERPE,[27],90%
same,Post-emergence action against AVEFA in %,[28]; 20 g/ha,90%
same,Post-emergence action against AVEFA in %,[28]; 80 g/ha,100%
same,Post-emergence action against SETVI in %,[29]; 5 g/ha,100%
same,Post-emergence action against SETVI in %,[29]; 20 g/ha,100%
same,Post-emergence action against SETVI in %,[29]; 80 g/ha,100%
